BindingDB's records for doi:10.7270/Q2RB7317 (Nmmlsc, 2009)

Molecular target: Ras-related C3 botulinum toxin substrate 1 (Mus musculus, UniProt P63001)
Experiment: wildtype Rac1 GTP binding inhibitors, SAR follow-up, biochemical, additional analogs, multiplex bead flow cytometry (AID 2040)

O=C1Nc2ccc(Br)cc2C1=C1Nc2ccccc2C1=O
Ki: 1510 nM

O=C1Nc2c(F)cccc2C1=C1Nc2ccccc2C1=O
Ki: 3230 nM

O=C1NC(=S)N/C1=C1\C(=O)Nc2ccccc21 [(3Z)-3-(5-oxo-2-sulfanylideneimidazolidin-4-ylidene)-1H-indol-2-one]
Ki: 160 nM

O=C1NC(=O)/C(=C2/C(=O)Nc3ccccc32)N1
Ki: 250 nM
